This is an account of results in ChEMBL document CHEMBL2407043, “Hydantoin based inhibitors of MMP13--discovery of AZD6605” (Bioorg Med Chem Lett, 2013).

Converted amounts (≈) assume the structure as drawn.

A short description of series [1]: Thermodynamic solubility of the compound in phosphate buffer at pH 7.4 at 25 degC after 24 hrs. As to conditions: read-out: Therm_solubility.
The nature of series [2]: Half life in dog at 0.5 mg/kg, iv and 1 mg/kg, po. In kind it is ADME, organism-based, Canis lupus familiaris. As to conditions: in vivo.
Series [3] can be described thus: Oral bioavailability in dog at 1 mg/kg. In kind it is ADME, organism-based, Canis lupus familiaris. As to conditions: in vivo.
Series [4] in a line: Volume of distribution at steady state in dog at 0.5 mg/kg, iv and 1 mg/kg, po. Format: ADME, organism-based, Canis lupus familiaris. As to conditions: in vivo, read-out: Vdss.
Series [5] has as its target Cytochrome P450 2D6 (Homo sapiens, UniProt P10635). Nature of the series: Inhibition of human CYP2D6. In kind it is ADME.
The target of series [6] is Cytochrome P450 2C19 (Homo sapiens, UniProt P33261). Nature of the series: Inhibition of human CYP2C19. In kind it is ADME.
Series [7] in a line: Volume of distribution at steady state in rat at 2 mg/kg, iv and 5 mg/kg, po. As to conditions: in vivo, read-out: Vdss. Format: ADME, organism-based.
Series [8] in a line: Clearance in dog at 0.5 mg/kg, iv and 1 mg/kg, po. In kind it is ADME, organism-based, Canis lupus familiaris. As to conditions: in vivo.
Series [9] concerns the target Cytochrome P450 2C9 (Homo sapiens, UniProt P11712). Nature of the series: Inhibition of human CYP2C9. Format: ADME.
The nature of series [10]: Half life in rat at 2 mg/kg, iv and 5 mg/kg, po. Format: ADME, organism-based. As to conditions: in vivo.
In series [11] the target is Matrix metalloproteinase-14 (Homo sapiens, UniProt P50281).
For series [12], the target named is Cytochrome P450 3A4 (Homo sapiens, UniProt P08684). Nature of the series: Inhibition of human CYP3A4. Format: ADME.
For series [13], the target named is T1, Cytochrome P450 1A2 (Homo sapiens, UniProt P05177).
T1 sequence (P05177 whole entry): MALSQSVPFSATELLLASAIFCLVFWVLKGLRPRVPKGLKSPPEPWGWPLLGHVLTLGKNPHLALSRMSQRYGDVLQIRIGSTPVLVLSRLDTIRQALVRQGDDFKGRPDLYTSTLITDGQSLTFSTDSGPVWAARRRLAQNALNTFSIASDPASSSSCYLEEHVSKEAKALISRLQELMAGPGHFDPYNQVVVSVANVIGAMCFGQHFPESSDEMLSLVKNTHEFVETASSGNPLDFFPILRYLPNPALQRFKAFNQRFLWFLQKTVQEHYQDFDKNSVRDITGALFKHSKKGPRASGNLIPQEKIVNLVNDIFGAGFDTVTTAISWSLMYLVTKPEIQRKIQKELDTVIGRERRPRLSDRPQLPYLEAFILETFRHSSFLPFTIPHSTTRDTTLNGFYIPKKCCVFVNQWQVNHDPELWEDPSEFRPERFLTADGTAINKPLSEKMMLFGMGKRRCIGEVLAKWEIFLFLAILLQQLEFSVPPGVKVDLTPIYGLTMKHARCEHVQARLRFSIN
Nature of the series: Inhibition of human CYP1A2. Format: ADME.

The nature of series [14]: Oral bioavailability in rat at 5 mg/kg. Format: ADME, organism-based. As to conditions: in vivo.
Series [15] in a line: Clearance in rat at 2 mg/kg, iv and 5 mg/kg, po. In kind it is ADME, organism-based. As to conditions: in vivo.
A short description of series [16]: Half life in rat. In kind it is ADME, organism-based. As to conditions: in vivo.
Series [17] in a line: in vitro. As to conditions: human, liver microsomes. (In general: Liver microsomes are vesicles of endoplasmic reticulum, rich in cytochrome P450 enzymes.)
Series [18] in a line: Clearance in rat at 2 mg/kg, iv. Format: ADME, organism-based. Also on record: dose 2 mg/kg, route intravenous. As to conditions: in vivo.
Series [19] can be described thus: Elimination half life in mouse. Format: ADME, organism-based. As to conditions: in vivo, read-out: beta t1/2 (converted).
Series [20] is described as follows: Oral bioavailability in rat at 3 to 10 mg/kg. Format: ADME, organism-based. As to conditions: in vivo.
The nature of series [21]: Elimination half life in dog. In kind it is ADME, organism-based, Canis lupus familiaris. As to conditions: in vivo, read-out: beta t1/2 (converted).
A short description of series [22]: Elimination half life in rat. Format: ADME, organism-based. As to conditions: in vivo, read-out: beta t1/2 (converted).
Series [23] addresses Macrophage metalloelastase (Homo sapiens, UniProt P39900). Nature of the series: Inhibition of MMP-12 (unknown origin) by fluorescence assay.

Macrophage metalloelastase, sequence (P39900 whole entry): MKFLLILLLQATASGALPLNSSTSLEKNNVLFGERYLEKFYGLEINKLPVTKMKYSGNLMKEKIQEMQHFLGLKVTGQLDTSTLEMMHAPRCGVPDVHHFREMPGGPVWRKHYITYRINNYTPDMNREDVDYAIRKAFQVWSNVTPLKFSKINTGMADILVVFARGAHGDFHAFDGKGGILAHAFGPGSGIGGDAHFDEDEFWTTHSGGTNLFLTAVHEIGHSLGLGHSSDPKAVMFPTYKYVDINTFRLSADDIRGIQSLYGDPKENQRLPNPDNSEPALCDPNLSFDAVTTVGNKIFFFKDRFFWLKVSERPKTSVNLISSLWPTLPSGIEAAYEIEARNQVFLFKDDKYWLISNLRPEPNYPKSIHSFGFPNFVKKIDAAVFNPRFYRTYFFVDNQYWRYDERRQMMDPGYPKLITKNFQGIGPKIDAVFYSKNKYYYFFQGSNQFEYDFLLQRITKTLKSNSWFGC
Cytochrome P450 2C9, sequence (P11712 whole entry): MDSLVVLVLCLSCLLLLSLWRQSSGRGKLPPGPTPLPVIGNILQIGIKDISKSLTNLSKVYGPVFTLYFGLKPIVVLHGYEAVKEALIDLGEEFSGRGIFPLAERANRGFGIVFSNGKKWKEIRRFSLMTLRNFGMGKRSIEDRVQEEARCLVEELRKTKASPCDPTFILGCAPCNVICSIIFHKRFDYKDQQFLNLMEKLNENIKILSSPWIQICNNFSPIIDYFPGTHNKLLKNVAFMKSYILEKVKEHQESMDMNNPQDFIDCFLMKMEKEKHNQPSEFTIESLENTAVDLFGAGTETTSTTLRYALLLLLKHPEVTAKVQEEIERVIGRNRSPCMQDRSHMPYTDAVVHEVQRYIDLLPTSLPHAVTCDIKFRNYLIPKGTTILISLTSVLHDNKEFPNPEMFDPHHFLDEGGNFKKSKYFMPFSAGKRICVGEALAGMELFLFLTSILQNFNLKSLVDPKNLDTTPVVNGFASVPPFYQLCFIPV
Cytochrome P450 2D6, sequence (P10635 whole entry): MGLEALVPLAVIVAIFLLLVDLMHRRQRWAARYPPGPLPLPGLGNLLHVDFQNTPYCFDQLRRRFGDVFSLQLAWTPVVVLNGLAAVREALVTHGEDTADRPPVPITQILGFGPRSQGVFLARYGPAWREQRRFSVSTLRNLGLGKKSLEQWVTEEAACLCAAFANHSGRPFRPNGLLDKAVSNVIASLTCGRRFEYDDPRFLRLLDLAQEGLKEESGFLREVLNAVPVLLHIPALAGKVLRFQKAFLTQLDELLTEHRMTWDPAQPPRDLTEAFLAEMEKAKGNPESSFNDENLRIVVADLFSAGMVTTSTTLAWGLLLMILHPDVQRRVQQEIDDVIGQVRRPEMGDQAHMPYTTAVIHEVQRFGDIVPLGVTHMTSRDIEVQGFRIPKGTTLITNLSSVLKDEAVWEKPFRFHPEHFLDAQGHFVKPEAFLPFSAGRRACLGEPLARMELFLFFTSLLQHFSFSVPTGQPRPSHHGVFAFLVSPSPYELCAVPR
Cytochrome P450 2C19, sequence (P33261 whole entry): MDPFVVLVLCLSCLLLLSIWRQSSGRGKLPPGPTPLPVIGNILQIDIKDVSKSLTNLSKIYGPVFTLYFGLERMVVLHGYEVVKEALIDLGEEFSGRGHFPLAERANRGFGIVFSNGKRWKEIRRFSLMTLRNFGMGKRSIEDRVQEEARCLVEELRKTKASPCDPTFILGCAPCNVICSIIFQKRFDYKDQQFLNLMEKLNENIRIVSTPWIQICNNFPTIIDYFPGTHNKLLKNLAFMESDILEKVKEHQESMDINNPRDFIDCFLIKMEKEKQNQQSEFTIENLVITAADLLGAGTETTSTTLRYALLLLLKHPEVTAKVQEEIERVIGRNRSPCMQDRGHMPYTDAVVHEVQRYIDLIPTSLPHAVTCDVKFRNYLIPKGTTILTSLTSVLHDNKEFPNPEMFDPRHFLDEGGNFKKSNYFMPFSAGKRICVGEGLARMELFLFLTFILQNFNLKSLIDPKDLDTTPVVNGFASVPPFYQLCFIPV
Cytochrome P450 3A4, sequence (P08684 whole entry): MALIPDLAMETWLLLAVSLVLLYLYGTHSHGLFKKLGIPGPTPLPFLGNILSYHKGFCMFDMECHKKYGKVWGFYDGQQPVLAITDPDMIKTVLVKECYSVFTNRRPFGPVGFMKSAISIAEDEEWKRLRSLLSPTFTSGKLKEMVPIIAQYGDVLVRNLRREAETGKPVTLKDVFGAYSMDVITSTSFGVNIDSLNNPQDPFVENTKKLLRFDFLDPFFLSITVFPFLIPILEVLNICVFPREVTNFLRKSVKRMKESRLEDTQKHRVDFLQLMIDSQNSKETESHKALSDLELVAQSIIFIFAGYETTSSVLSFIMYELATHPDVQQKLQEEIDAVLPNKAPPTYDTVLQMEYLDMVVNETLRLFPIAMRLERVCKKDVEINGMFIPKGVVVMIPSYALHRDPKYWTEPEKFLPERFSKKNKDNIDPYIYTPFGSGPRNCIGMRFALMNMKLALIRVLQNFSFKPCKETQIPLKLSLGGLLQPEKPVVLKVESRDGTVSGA

In the case of `C[C@]1(CS(=O)(=O)N2CCC(Oc3ccc(OCc4ccncc4)cc3)CC2)NC(=O)NC1=O`, in [1], the solubility thermodynamic at 24 h amounted to 130 µM (≈ 61.7 µg/mL).

Take `C[C@]1(CS(=O)(=O)N2CCC(Oc3ccc(OCc4cccnc4)cc3)CC2)NC(=O)NC1=O`: in series [1], the solubility thermodynamic at 24 h is 8.4 µM (≈ 3.99 µg/mL).

What is called bioavailability is dose-corrected exposure relative to a reference, in per cent. Low readings indicate little systemic uptake, high ones much systemic uptake. One may read the IC50 as the concentration that inhibits the measured activity by half. Higher therefore signals a need for much substance. Consider `C[C@]1(CS(=O)(=O)N2CCC(Oc3ccc(OCc4ccccn4)cc3)CC2)NC(=O)NC1=O`, for which the results for the half-life in series [2] and in series [10] were 2.3 h and 2.5 h, respectively. Besides, the bioavailability in series [3] was determined as 51%; in [14] it was 35%. For the same compound, the Vd stood at 0.6 L/kg in [4] and 0.8 L/kg in series [7]. In addition, the IC50 in series [5] is greater than 10000 nM; in series [6] it was greater than 10000 nM; in series [9], greater than 10000 nM; in series [11] it was 6900 nM; in series [12], greater than 10000 nM; in series [13] it was greater than 10000 nM. Further, in [1], the solubility thermodynamic at 24 h was found to be 20 µM (≈ 9.49 µg/mL). Moreover, the clearance in [8] turned out to be 3 mL/min/kg; in series [15], 17 mL/min/kg.

For the compound `C[C@]1(CS(=O)(=O)N2CCC(Oc3ccc(OCc4cscn4)cc3)CC2)NC(=O)NC1=O`, the solubility thermodynamic at 24 h in series [1] amounted to 87 µM (≈ 41.8 µg/mL). Also, the IC50 in series [11] is 4090 nM.

As to `C[C@]1(CS(=O)(=O)N2CCC(Oc3ccc(OCc4cnsn4)cc3)CC2)NC(=O)NC1=O`, the solubility thermodynamic at 24 h in series [1] was determined as 28 µM (≈ 13.5 µg/mL). Further, in series [11], the midpoint of inhibition, the IC50, lay at 350 nM.

Consider `C[C@]1(CS(=O)(=O)N2CCC(Oc3ccc(OCc4ccc(C(F)(F)F)o4)cc3)CC2)NC(=O)NC1=O`, for which the IC50 in series [11] was 1860 nM.

What is called microsomal CLint is a measure of how fast metabolising enzymes remove a compound, apart from limits set by blood flow. Read a high microsomal CLint as faster metabolism. With `C[C@]1(CS(=O)(=O)N2CCN(c3ncc(OCc4ccc(F)cc4)cn3)CC2)NC(=O)NC1=O`, the half-life in series [16] was 1.9 h. The Vd in series [7] was 0.5 L/kg. Also, the solubility thermodynamic at 24 h in series [1] is 16 µM (≈ 7.66 µg/mL). The microsomal CLint in series [17] was 16 µL/min/mg. Also, the clearance in series [18] was 4.8 mL/min/kg.

As for `C[C@]1(CS(=O)(=O)N2CCN(c3ncc(OCc4cccc(C#N)c4)cn3)CC2)NC(=O)NC1=O`, the half-life in series [19] was 5.8 h; in [16] it was 7.5 h; in series [21] it was 5.4 h; in [22], 7.5 h. The same compound yielded a bioavailability in [20] of 51%. The Vd in series [7] is 0.5 L/kg. The solubility thermodynamic at 24 h in [1] was 66 µM (≈ 32 µg/mL). The compound further displayed a microsomal CLint in series [17] of less than 2 µL/min/mg. For the same compound, the clearance in series [18] was 18.1 mL/min/kg.

With `C[C@]1(CS(=O)(=O)N2CCN(c3ncc(OCc4ccc(S(C)(=O)=O)cc4)cn3)CC2)NC(=O)NC1=O`, in [1], the solubility thermodynamic at 24 h worked out at 1 µM (≈ 0.539 µg/mL).

As for `C[C@]1(CS(=O)(=O)N2CCC(Oc3ccc(F)cc3)CC2)NC(=O)NC1=O`, half-maximal inhibition in series [23] (IC50) was put at 23.7 nM. Also, in series [1], the solubility thermodynamic at 24 h stood at 52 µM (≈ 20 µg/mL).

As to `CCOc1ccc(OC2CCN(S(=O)(=O)C[C@@]3(C)NC(=O)NC3=O)CC2)cc1`, the IC50 in series [23] worked out at 2 nM; in series [11], 2820 nM. The solubility thermodynamic at 24 h in series [1] amounted to 15 µM (≈ 6.17 µg/mL).

For the compound `C[C@]1(CS(=O)(=O)N2CCC(Oc3ccc(OC(F)(F)F)cc3)CC2)NC(=O)NC1=O`, the IC50 in series [23] turned out to be 3.3 nM; in [11] it was 9500 nM. Moreover, the solubility thermodynamic at 24 h in series [1] worked out at 18 µM (≈ 8.13 µg/mL).

Take `C[C@]1(CS(=O)(=O)N2CCC(Oc3ccc(OCC(F)(F)F)cc3)CC2)NC(=O)NC1=O`: in [1], the solubility thermodynamic at 24 h amounted to 34 µM (≈ 15.8 µg/mL). This compound also displayed an IC50 in [11] of 1950 nM.

Regarding `C[C@]1(CS(=O)(=O)N2CCC(Oc3ccc(OCCC(F)(F)F)cc3)CC2)NC(=O)NC1=O`, the solubility thermodynamic at 24 h in series [1] was 110 µM (≈ 52.7 µg/mL). For the same compound, half-maximal inhibition in series [11] (IC50) required 3120 nM.

Turning to `C[C@]1(CS(=O)(=O)N2CCC(Oc3ccc(OCC(F)(F)C(F)(F)F)cc3)CC2)NC(=O)NC1=O`, the solubility thermodynamic at 24 h in series [1] worked out at 4.4 µM (≈ 2.27 µg/mL). In series [11], this compound displayed a 50% inhibitory concentration (IC50) of 4740 nM.

As to `C[C@]1(CS(=O)(=O)N2CCC(Oc3ccc(OCC(F)(F)C(F)F)cc3)CC2)NC(=O)NC1=O`, the solubility thermodynamic at 24 h in series [1] worked out at 32 µM (≈ 15.9 µg/mL). This compound showed an IC50 in series [11] of 553 nM.

Regarding `C[C@]1(CS(=O)(=O)N2CCC(Oc3ccc(OC(F)(F)C(F)(F)F)cc3)CC2)NC(=O)NC1=O`, in series [1], the solubility thermodynamic at 24 h was less than 2 µM. Besides, in [11], the half-maximal inhibitory concentration (IC50) was greater than 10000 nM.

In turn, `C[C@]1(CS(=O)(=O)N2CCC(Oc3ccc(Cl)cc3)CC2)NC(=O)NC1=O` gave an IC50 in series [23] of 8.9 nM. For the same compound, the solubility thermodynamic at 24 h in series [1] came out at 12 µM (≈ 4.82 µg/mL).
